According to paper PMC5652740, “Inhibition of HIV-1 infection in humanized mice and metabolic stability of protein phosphatase-1-targeting small molecule 1E7-03” (Oncotarget, 2017):

Columns and labels:
[1] = tested on: CEM T cells; assay: Cytotoxicity with calcein-AM; assay type: cell-based; details: in words
Experimental: To assess cytotoxicity with calcein, media was removed and the cells washed with PBS in order to remove serum esterase activity that may cause an increase in fluorescence through the hydrolysis of calcein-AM. Cells were then supplemented with 0.2 μM calcein-AM (Molecular Probes, Invitrogen) for 10 min at 37°C. Fluorescence was measured using the luminescence spectrometer described above implementing 495 nm excitation and 515 nm emission filters.

[2] = 1E7-03 degradation in ferret plasma; assay type: in vitro ADME; details: 37°C
Experimental: (§1) 1E7-03 dissolved in DMSO (10 mM stock solution) was mixed with mouse plasma (Sigma-Aldrich), guinea pig plasma (Sigma-Aldrich), ferret plasma (BioreclamationIVT), monkey plasma (courtesy of Binhua Ling, PhD, Tulane University) and human plasma (collected from heathy volunteer by the Center for Sickle Cell Disease at Howard University) to the final concentration of 10 μM and incubated at 37°C. Aliquots were collected at different time points for up to 24 hrs. The resulting sample (60 μl) was mixed with 240 μl of cold acetone, vortexed for 2 min, kept at –20°C for 30 min, and then the precipitated protein was removed by centrifugation at 13,000 × g for 5 min. The supernatant was transferred to a clean test tube and evaporated to dryness using a SpeedVac concentrator. The residue reconstituted in 60 μl of acetonitrile for LC/FT-MS analysis. All experiments were run parallel in triplicates.

[3] = 1E7-03 degradation in monkey plasma; assay type: in vitro ADME; details: 37°C
Experimental: as §1

[4] = 1E7-03 degradation in human plasma; assay type: in vitro ADME; details: 37°C
Experimental: as §1

[5] = Stability of 1E7-03 in cell culture media and PBS; assay type: physicochemical
Experimental: CEM T cells were seeded in 24-well plates (200,000 cells/well). On the next day cells were treated with 10 μM 1E7-03. Media (100 μl) was collected at different time points during 48 hrs and total protein was precipitated by 400 μl of cold acetone and centrifuged at 13,000 × g for 5 min. The supernatant was collected and evaporated to dryness using a SpeedVac concentrator. The dry pellet was reconstituted in 100 μl of acetonitrile for LC/FT-MS analysis. In addition, 1E7-03 (10 μM) was incubated at 37°C in serum-free media and complete media without cell treatment. Media of 100 μl was collected after 24 hrs of incubation. The stabilities of 1E7-03 (10 μM) at phosphate buffered saline (PBS) and PBS with the addition of 10% bovine serum albumin were also investigated at 37°C incubation. Samples (100 μl) were collected at different time points up to 24 hrs. All samples were prepared by the same above-mentioned procedure for LC/FT-MS analysis.

[6] = tested on: HIV-1 integration; assay: HIV-1 integration, Alu-Gag real-time PCR in CEM T cells; assay type: cell-based; details: 10 μM, DNA 6 hrs post infection, in words
Experimental: To assay HIV-1 integration, CEM T cells were infected with HIV-1-LUC-G virus and treated with 10 μM 1E7-03 or DMSO. Total DNA was extracted from cells using lysis buffer (10 mM Tris-HCl pH 8.0, 10 mM EDTA, 5 mM NaCl, 200 μg/ml proteinase K). The cells were lysed for 20-30 min at room temperature and proteinase K was inactivated by heating to 95°C for 5 min. For the real-time PCR analysis, 100 ng DNA was amplified using Roche Light Cycler 480 (Roche Diagnostics) and SYBR Green1 Master mix (Roche Diagnostics). PCR was carried with initial preincubation for 5 min at 45°C and then for 3 in at 95°C followed by 45 cycles of denaturation at 95°C for 15 sec, annealing and extension at 60°C for 45 sec, and final extension at 72°C for 10 sec. Integrated HIV-1 DNA was amplified using the following primers: Alu forward 5'-[…]-3', and Gag reverse 5'-[…]-3'.

[7] = tested on: RSP13 and β-actin mRNA in CEM T cells; assay: Cellular transcription, RSP13 and β-actin mRNA by real-time RT-PCR; assay type: cell-based; details: 10 μM, in words
Experimental: For quantitative analysis of HIV-1 RNA, CEM T cells were infected with HIV-1-LUC-G virus. Cells were treated with 10 μM 1E7-03, 10 μM DP1, 10 μM DP3, 5 μM AZT or 5 μM 3TC and control cells were untreated or treated with DMSO. Total RNA was isolated using Trizol Reagent (Invitrogen, Carlsbad, CA) according to the manufacturer's protocol. Total RNA (100 ng) was reverse transcribed to cDNA using Superscript™ RT-PCR kit (Invitrogen, Carlsbad, CA). Hexamers and oligo-dT were used as primers. For real-time PCR analysis, cDNA was amplified using Roche LightCycler 480 (Roche Diagnostics) and SYBR Green1 Master mix (Roche Diagnostics). PCR was run for 45 cycles and each cycle included denaturation at 95°C for 10 seconds, annealing at 60°C for 10 seconds, and extension at 72°C for 10 seconds. Quantification of env and gag was carried using 18S RNA as a normalization standard. Quantification of housekeeping genes, β-actin and RSP13 was carried relative to 18S RNA. Mean Cp values were determined and ΔΔCt method was used to calculate relative expression levels. Unpaired t-test was used to test statistical significance.
The following primer sequences were used: env, forward - […], reverse-[…]; gag, forward- […], reverse- […]; β-actin, forward- […], reverse-[…]; RSP13, forward- […], reverse- […]; and 18SrRNA, forward- […], reverse- […].

| Structure (SMILES) | toxicity in CEM T cells compared to 1E7-03 [1] | remaining at 24 h, 10 µM [2] | remaining at 24 h, 10 µM [3] | remaining at 24 h, 10 µM [4] | Peak Area (%), Complete media ([5]; 10 μM 1E7-03 in media with 10% FBS, 37°C, 24 hrs, 1E7-03 remaining and DPs formed) | Peak Area (%), FBS free media ([5]; 10 μM 1E7-03 in serum free media, 37°C, 24 hrs, 1E7-03 remaining and DPs formed) | stability in complete media ([5]; 10 μM, 37°C, 48 hrs, in words) | remaining at 4 h, 10 µM ([5]; PBS with 10% bovine serum albumin, 4 hrs, read-out: % remaining intact in PBS with 10% BSA) | remaining at 24 h, 10 µM ([5]; PBS with 10% bovine serum albumin, 24 hrs, read-out: % remaining in PBS with 10% BSA) | % of compound degraded in PBS ([5]; PBS, 37°C, 4 hrs) | remaining at 48 h, 10 µM ([5]; human, culture media of CEM T cells, 48 hrs of incubation, read-out: % remained intact in cell culture media) | effect on HIV-1 integration [6] | RSP13 mRNA expression [7] | β-actin mRNA expression [7] |
| --- | --- | --- | --- | --- | --- | --- | --- | --- | --- | --- | --- | --- | --- | --- |
| COc1ccc(/C=C2\CCCc3c2nc2ccccc2c3C(=O)OC(C)C(=O)OC(C)(C)C)cc1OC (centres unmarked) [DP1-07] | reduced toxicity | – | – | – | – | – | – | – | – | – | – | – | – | – |
| CCNC(=O)NC(=O)C(C)OC(=O)c1c2c(nc3ccccc13)/C(=C/c1ccc(OC)c(OC)c1)CC2 (centres unmarked) [1E7-03] | – | > 50% | > 50% | > 50% | 98.6% | 7% | remained stable and did not undergo degradation | 75% | > 50% | over 80% | > 90% | did not show any significant effect | slight induction | slight induction |
